The nature of this data set: Gas solubility in water / dip solution. In kind it is physicochemical. Particulars: standard room temperature and 100 psi pressure. As to the method: Carbon dioxide (CO2) is soluble in water up to 1.45 g/L at 25° C. and 100 kPa. The amount of CO2 that can be dissolved into the dip solution is dependent on the temperature and pressure of the solution. The lower the temperature of the solution the less pressure that is required to saturate the solution with CO2. Conversely, the higher the temperature of the dip solution the more pressure that is required to saturate the solution with CO2.
The system (FIG. 3) was used with nitrous oxide as the propellant/diffusion gas. In an embodiment of the invention, nitrous oxide (N2O) can be used as a propellant/diffusion. N2O is partially soluble in water, but is almost completely soluble in fats and oils (the skin conditioner provided in the cow dip). Under standard room temperature and 100 psi pressure, approximately four volumes of N2O can be dissolved in one volume of the dip solution. The resulting nitrous oxide foam expands to approximately 6 mm in diameter, where the individual bubbles in the foam vary in size from approximately 1 micron to approximately 10 microns. After coalescing, the remaining liquid dries on the teat. It is noted that the amount of N2O that can be dissolved in one volume of dip solution will increase if more conditioners (containing one or more of fats, oils, fatty acids and triglycerides) are used since N2O is almost completely soluble in fats and oils. […]

As for `[N-]=[N+]=O` [Example N2O, nitrous oxide], the “volumes dissolved (gas and dip solution)” value is “approximately four”.
With `O=C=O` [CO2, Carbon dioxide], the “volumes dissolved (gas and dip solution)” value is “approximately 4.5 volumes”.
